Experimental data taken from ChEMBL document CHEMBL1921749, “5-Lipoxygenase-activating protein (FLAP) inhibitors. Part 4: development of 3-[3-tert-butylsulfanyl-1-[4-(6-ethoxypyridin-3-yl)benzyl]-5-(5-methylpyridin-2-ylmethoxy)-1H-indol-2-yl]-2,2-dimethylpropionic acid (AM803), a potent, oral, once daily FLAP inhibitor” (J Med Chem, 2011).

How the values were obtained:
[1] = biological target: T1, Arachidonate 5-lipoxygenase-activating protein (Homo sapiens, UniProt P20292); assay: Inhibition of FLAP in human whole blood assessed as inhibition of calcium ionophore A23187-induced LTB4 production preincubated for 5 hrs by ELISA
T1 sequence (P20292 whole entry): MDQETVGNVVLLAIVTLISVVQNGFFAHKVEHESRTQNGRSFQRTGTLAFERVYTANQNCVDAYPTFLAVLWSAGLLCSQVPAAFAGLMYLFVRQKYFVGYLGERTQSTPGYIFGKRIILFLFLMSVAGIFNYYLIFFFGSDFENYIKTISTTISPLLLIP

Cytochrome P450 3A4 = Cytochrome P450 3A4 (Homo sapiens, UniProt P08684); assay: Inhibition of human CYP3A4; type: ADME
[2] = biological target: T2, Leukotriene A-4 hydrolase (Homo sapiens, UniProt P09960); assay: Inhibition of LTA4 […]
T2 sequence (P09960 whole entry): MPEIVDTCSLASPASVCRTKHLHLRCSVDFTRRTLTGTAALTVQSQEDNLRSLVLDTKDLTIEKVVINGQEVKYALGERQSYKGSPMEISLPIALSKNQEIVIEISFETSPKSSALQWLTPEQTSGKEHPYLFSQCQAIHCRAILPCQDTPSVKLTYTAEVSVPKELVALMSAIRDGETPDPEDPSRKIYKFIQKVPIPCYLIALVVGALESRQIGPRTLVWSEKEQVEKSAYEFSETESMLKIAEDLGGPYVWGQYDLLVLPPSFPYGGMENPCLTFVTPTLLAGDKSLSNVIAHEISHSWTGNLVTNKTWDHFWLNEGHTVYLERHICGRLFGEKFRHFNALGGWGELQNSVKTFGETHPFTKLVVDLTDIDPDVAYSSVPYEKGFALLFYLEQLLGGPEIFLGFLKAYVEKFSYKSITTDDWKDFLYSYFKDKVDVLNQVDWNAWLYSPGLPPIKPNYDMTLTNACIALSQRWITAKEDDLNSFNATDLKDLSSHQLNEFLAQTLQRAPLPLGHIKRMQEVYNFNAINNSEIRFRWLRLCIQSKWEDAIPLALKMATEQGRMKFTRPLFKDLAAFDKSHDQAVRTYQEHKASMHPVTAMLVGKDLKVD

Rattus norvegicus = assay: Antiinflammatory activity in rat assessed as inhibition of calcium ionophore A23187-induced CysLT production in bronchoalveolar lavage fluid at 3 mg/kg, po administered 4 hrs prior to A23187 challenge; type: functional, Lung; set-up: scale not given: the % may be the effect or the level left
[3] = biological target: Prostaglandin G/H synthase 1 (Homo sapiens, UniProt P23219); assay: Inhibition of COX1-mediated TXB2 production in human whole blood after 30 mins by competitive enzyme immunoassay
Cytochrome P450 2D6 = Cytochrome P450 2D6 (Homo sapiens, UniProt P10635); assay: Inhibition of human CYP2D6; type: ADME
[4] = Plasma protein binding in rat; type: ADME, cell-free; settings: read-out: PPB (converted)
[5] = biological target: T3, Arachidonate 5-lipoxygenase-activating protein (Rattus norvegicus, UniProt P20291); assay: Inhibition of FLAP in rat whole blood assessed as inhibition of calcium ionophore A23187-induced LTB4 production preincubated for 15 mins by ELISA; type: tissue-based
T3 sequence (P20291 whole entry): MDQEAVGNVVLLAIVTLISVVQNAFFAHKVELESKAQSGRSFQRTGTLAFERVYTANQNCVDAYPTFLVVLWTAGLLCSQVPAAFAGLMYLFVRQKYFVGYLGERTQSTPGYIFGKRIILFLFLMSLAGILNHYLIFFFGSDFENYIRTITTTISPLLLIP

[6] = biological target: T1, Arachidonate 5-lipoxygenase-activating protein; assay: Inhibition of FLAP in human peripheral leukocytes assessed as inhibition of calcium ionophore A23187-induced LTB4 production after 3 hr by ELISA in presence of 0.5% human serum albumin; type: cell-based
[7] = biological target: T4, Prostaglandin G/H synthase 2 (Homo sapiens, UniProt P35354); assay: Inhibition of COX2-mediated PGE2 production in human whole blood assay
T4 sequence (P35354 whole entry): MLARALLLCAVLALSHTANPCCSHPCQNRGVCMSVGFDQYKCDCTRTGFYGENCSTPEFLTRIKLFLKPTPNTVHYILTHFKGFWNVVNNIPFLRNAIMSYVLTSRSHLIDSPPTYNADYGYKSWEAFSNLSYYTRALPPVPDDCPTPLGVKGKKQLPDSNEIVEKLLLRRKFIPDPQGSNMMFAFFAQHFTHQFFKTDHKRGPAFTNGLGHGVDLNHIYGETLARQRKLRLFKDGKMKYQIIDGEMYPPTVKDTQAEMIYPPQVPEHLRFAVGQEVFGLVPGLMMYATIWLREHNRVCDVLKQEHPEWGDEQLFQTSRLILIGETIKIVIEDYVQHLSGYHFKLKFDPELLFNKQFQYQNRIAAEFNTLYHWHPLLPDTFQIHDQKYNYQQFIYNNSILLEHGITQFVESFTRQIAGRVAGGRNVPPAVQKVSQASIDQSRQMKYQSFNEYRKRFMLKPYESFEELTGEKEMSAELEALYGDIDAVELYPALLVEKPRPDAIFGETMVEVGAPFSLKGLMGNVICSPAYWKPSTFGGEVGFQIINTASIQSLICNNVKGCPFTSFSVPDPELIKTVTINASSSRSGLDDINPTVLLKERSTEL

Prostaglandin G/H synthase 1, sequence (P23219 whole entry): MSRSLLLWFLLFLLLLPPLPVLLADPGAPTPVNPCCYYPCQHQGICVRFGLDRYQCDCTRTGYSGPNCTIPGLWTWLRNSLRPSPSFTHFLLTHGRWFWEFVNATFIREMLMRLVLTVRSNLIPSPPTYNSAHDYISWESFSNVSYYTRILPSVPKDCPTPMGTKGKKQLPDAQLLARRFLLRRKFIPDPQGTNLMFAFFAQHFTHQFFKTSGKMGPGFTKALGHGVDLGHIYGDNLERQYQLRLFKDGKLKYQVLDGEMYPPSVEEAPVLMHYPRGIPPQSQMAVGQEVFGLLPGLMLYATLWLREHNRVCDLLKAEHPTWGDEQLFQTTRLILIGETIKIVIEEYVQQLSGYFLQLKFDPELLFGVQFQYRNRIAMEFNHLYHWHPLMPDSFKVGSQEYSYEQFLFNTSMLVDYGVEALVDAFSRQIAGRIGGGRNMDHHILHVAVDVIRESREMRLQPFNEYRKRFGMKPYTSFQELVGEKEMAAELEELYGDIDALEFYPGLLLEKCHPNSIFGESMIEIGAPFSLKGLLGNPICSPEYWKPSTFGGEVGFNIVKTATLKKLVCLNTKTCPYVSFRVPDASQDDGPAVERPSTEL
Cytochrome P450 3A4, sequence (P08684 whole entry): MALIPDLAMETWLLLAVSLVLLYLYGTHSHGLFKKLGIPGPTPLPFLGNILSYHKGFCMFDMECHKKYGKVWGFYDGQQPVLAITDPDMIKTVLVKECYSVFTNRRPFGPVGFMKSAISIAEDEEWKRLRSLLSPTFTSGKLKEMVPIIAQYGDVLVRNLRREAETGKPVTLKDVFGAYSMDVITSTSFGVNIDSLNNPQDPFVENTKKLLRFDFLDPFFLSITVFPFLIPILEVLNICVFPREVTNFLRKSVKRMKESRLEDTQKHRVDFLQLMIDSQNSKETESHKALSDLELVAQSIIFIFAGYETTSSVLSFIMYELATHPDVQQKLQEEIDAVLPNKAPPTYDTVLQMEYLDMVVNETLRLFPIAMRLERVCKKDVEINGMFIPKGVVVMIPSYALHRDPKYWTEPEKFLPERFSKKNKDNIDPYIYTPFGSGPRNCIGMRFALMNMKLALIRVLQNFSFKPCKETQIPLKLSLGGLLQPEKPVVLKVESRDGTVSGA
Cytochrome P450 2D6, sequence (P10635 whole entry): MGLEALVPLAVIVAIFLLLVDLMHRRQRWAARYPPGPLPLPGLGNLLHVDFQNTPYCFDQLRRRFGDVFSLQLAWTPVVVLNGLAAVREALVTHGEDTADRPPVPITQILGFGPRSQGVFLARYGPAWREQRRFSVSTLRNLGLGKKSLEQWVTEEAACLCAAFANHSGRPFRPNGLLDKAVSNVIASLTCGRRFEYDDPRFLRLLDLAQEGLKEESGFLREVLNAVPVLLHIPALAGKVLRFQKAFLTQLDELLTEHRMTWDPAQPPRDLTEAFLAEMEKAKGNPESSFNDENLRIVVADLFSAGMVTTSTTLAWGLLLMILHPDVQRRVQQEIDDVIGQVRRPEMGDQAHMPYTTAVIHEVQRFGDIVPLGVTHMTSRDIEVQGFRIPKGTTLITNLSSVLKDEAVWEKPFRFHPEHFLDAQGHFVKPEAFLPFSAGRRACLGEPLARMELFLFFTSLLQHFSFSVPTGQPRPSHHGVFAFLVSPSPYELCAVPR

## CCOc1ccc(-c2ccc(Cn3c(CC(C)(C)C(=O)O)c(SC(C)(C)C)c4cc(OCc5ccc(C)cn5)ccc43)cc2)cn1 [FIBOFLAPON]
[1]
  IC50: 0.076 µM
Cytochrome P450 3A4
  IC50: > 50 µM
[2]
  IC50: > 100 µM
Rattus norvegicus
  Activity: 80%
[3]
  IC50: 58 µM
Cytochrome P450 2D6
  IC50: > 40 µM
[4]
  fraction unbound: 0.002
[5]
  IC50: 0.239 µM
[6]
  IC50: 0.004 µM
[7]
  IC50: > 100 µM
